Assay results: paper PMC6105673 (Nature Communications, 2018)
*: point of attachment. Biotin = O=C1N[C@H]2[C@H](CS[C@H]2CCCCC(=O)*)N1

Tests used:
HIS6-PHD2 (181–426) [1] = test: In vitro hydroxylation assay (HIS6-PHD2 treatment, then IVTT pVHL pull-down); assay type: biochemical; details: unmodified biotinylated peptides, 15 μg/mL HIS6-PHD2 (181–426), 1 h room temperature, then IVTT HA-VHL30 under stringent buffer
Experimental: Considering that prolyl hydroxylation is indispensable for HIF-2α binding to pVHL, we next examined the notion that the A530V mutation negatively influences hydroxylation of HIF-2α via PHD2, which would attenuate HIF-2α A530V binding affinity for pVHL. We conducted an in vitro hydroxylation assay utilizing unmodified peptides (amino acids 523–542) incubated with purified HIS6-PHD2 (catalytic core, amino acids 181–426).
Fig. 5 A subset of class 1 mutations specifically disrupts PHD2-mediated hydroxylation. a, b Biotinylated HIF-2α peptides (residues 523–542) were immobilized on streptavidin- agarose beads and incubated with HIS6-PHD2 for 1 h at room temperature prior to incubation with in vitro transcribed and translated (IVTT) pVHL. Streptavidin beads were pulled down (PD) and levels of HA-tagged pVHL were visualized via immmunoblotting (IB). c HEK293a cells were co-transfected with FLAG-VHL and HA-HIF-2α constructs. FLAG was immunoprecipitated (IP) and levels of HA-tagged HIF-2α were visualized via immunoblotting (IB). * denotes uncharacterized band
The in vitro pVHL-HIF-2α hydroxylation assay was performed according to a previously published protocol. 5 μg of biotinylated HIF-2α peptide was immobilized on streptavidin-agarose beads. Subsequently, peptides were incubated with 15 μg/mL HIS6-PHD2 (181–426) in 500 μL of 40 mM HEPES pH 7.4, 80 mM KCl, 5 mM a-ketoglutarate, 2 mM ascorbic acid, 100 μM FeCl2 tetrahydrate solution at room temperature for 1 h. FeCl2 was stored under anoxic conditions to prevent oxidation. Following hydroxylation, beads were washed 5x with EBC buffer and peptides were incubated with IVTT HA-VHL30 under the stringent buffer conditions described above.

HIS6-PHD2 (181–426) [2] = test: Steady-state pull-down of purified HIS6-PHD2 with biotinylated HIF-2α peptides; assay type: binding; details: for affinity for PHD2 in steady-state pull-down (immunoblot, in words): peptides (523–542), purified HIS6-PHD2 (181–426), with 1 mM MnCl2 and 1 mM NOG, 2 h at 4 °C
Excerpt: To first test this hypothesis, we performed steady-state pull-down experiments with HIF-2α peptides (523–542) and purified HIS6-PHD2 (181–426). To stabilize the interaction between enzyme and substrate, it was necessary to include MnCl2 and N-oxalylglycine (NOG) in the binding buffer. Mn^2+ and NOG substitute for Fe^2+ and αKG, respectively, which stabilizes the HIF-2α-PHD2 interaction while preventing enzymatic turnover. A similar strategy was employed during co-crystallization of HIF-1α peptide with PHD2[43]. We observed that […] tested HIF-2α mutations result in decreased affinity for PHD2 (Supplementary Figure 6a). […] Next, we co-transfected HEK293a cells with 3xFLAG-HIF-2α ODD and HA-PHD2 constructs. […] The increased binding of the M535I mutant to PHD2 was not observed in this experiment. One important caveat is that the HIF-2α ODD constructs contain both the P405 and P531 sites. Thus, the residual PHD2 binding observed among HIF-2α mutants may partially be driven by the P405 site, which may mask differential PHD2 binding among the HIF-2α mutant ODD constructs.
5 μg of biotinylated HIF-2α peptide (WT or mutant) was immobilized on streptavidin agarose beads and incubated with a […] solution of purified HIS6-PHD2 (181–426) in 50 mM Tris-HCl pH 7.5, 0.005% (v/v) Tween-20 buffer supplemented with or without 1 mM MnCl2 and 1 mM NOG, for 2 h at 4 °C. Beads were washed 2x with the same buffer. Biotinylated peptide was pulled down via streptavidin agarose beads and protein was eluted by boiling beads in sample buffer. Protein levels of HIS6-PHD2 were determined by western blotting. Uncropped western blots are provided in Supplementary Figure 8.
Supplementary Figure 6. HIF-2α mutations disrupt PHD2 binding. (A) Biotinylated HIF-2α peptides (523-542, except where noted) were immobilized on streptavidin- agarose beads and incubated with purified HIS6-PHD2 (181-426) in the presence or absence of 1 mM MnCl2 and 1 mM N-oxalylglycine (NOG).
Streptavidin beads were pulled down (PD) and levels of HIS6-tagged PHD2 were visualized via immmunoblotting (IB). […]

HIS6-PHD2(181-426) = test: Biolayer interferometry of HIS6-PHD2 binding to biotinylated HIF-2α peptides (523-542); details: BLI, 1 mM MnCl2 and 1 mM N-oxalylglycine, from mM to μM, accurate constants not possible (PHD2 aggregation)
Excerpt: 2. The authors concluded that some of class 1 mutation affects PHD2-mediated hydroxylation of HIF-2α (Fig. 4). I think it is better to examine the interaction between HIF -2α mutants and PHD2 utilizing IP-Western and BLI. Also, negative controls (non-hydroxylated HIF-2α peptide without PHD2 treatment) should be included in Fig. 4A and 4B.
RE S PO N S E : Done. We performed binding assays with recombinant PHD2 to test the reviewer’s […]
major technical hurdle with performing binding assay with enzymes is overcoming the inherently transient nature of the interaction.
In an effort to stabilize the interaction between HIF-2α peptide and PHD2, we incorporated a technique that was used during co-crystallization of HIF-1α peptide with PHD2 (Chowdhury et al., 2009). As PHD2 normally forms a stable complex with co-factors Fe2+ and α-ketoglutarate (αK G), we formed a complex of PHD2 with Mn2+ and N-oxalylglycine (NOG), which mimic iron and αK G, […]
During BLI experiments, the addition of […]
Figure X. Biolayer interferometry studies of HIF-2α peptide binding to PHD2. […] Biotinylated peptides were coupled to streptavidin- coated biosensors and monitored for binding to PHD2 at the indicated concentrations in the presence or absence of 1 mM MnCl2 and 1 mM N-oxalylglycine. The data were analyzed based on a 1:1 binding model using the BLItz Pro software with the fitted curves shown as gray lines. […]

[3] = target: T1, HIS6-PHD2 (catalytic core, amino acids 181–426) (UniProt Q9GZT9 181-426); test: pull-down; biotinylated unmodified peptide on streptavidin agarose, purified HIS6-PHD2 (181–426), 50 mM Tris-HCl pH 7.5, 0.005% Tween-20 with 1 mM MnCl2 and 1 mM NOG, 2 h at 4 °C; anti-HIS blot; details: both partners purified
T1 construct: prolyl hydroxylase domain containing enzyme 2 (PHD2, encoded by EGLN1), catalytic core, residues 181-426; plasmid pET-46 HIS6-PHD2; also called purified HIS6-PHD2 (181–426); source: E. coli BL21(DE3), purified (nickel sepharose, SEC)
T1 sequence (Q9GZT9 181-426): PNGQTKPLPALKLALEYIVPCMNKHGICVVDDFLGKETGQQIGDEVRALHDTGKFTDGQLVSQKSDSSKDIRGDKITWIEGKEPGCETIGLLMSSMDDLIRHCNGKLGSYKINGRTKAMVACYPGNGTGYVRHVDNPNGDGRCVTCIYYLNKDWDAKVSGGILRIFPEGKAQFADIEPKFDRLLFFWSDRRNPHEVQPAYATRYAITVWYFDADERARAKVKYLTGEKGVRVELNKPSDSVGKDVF

| Molecule | decrease of Kd for PHD2 on addition of Mn2+ and NOG (HIS6-PHD2(181-426)) | binding result [3] | binding to pVHL following HIS6-PHD2 treatment (immunoblot, in words) (HIS6-PHD2 (181–426) [1]) | affinity for PHD2 in steady-state pull-down (immunoblot, in words) (HIS6-PHD2 (181–426) [2]) | pull-down of recombinant PHD2 (in words) (HIS6-PHD2 (181–426) [2]; earlier experiments, without Mn2+/NOG stabilization) |
| --- | --- | --- | --- | --- | --- |
| Bio-HIF-2α(M535I): unmodified HIF-2α peptide (523–542) with M535I mutation (Biotin-ELDLETLAPYIPIDGEDFQL-NH2; SMILES CC[C@H](C)[C@H](NC(=O)[C@@H]1CCCN1C(=O)[C@@H](NC(=O)[C@H](Cc1ccc(O)cc1)NC(=O)[C@@H]1CCCN1C(=O)[C@H](C)NC(=O)[C@H](CC(C)C)NC(=O)[C@@H](NC(=O)[C@H](CCC(=O)O)NC(=O)[C@H](CC(C)C)NC(=O)[C@H](CC(=O)O)NC(=O)[C@H](CC(C)C)NC(=O)[C@H](CCC(=O)O)NC(=O)CCCC[C@@H]1SC[C@@H]2NC(=O)N[C@@H]21)[C@@H](C)O)[C@@H](C)CC)C(=O)N[C@@H](CC(=O)O)C(=O)NCC(=O)N[C@@H](CCC(=O)O)C(=O)N[C@@H](CC(=O)O)C(=O)N[C@@H](Cc1ccccc1)C(=O)N[C@@H](CCC(N)=O)C(=O)N[C@@H](CC(C)C)C(N)=O) |  |  | still retained affinity for pVHL | not as deleterious |  |
| ELDLETLA[Hyp/P]YIPMDGEDFQL [Bio-HIF-2α(523-542;WT)] | roughly 1000 fold |  | bound robustly | observed binding | failed to pull -down recombinant PHD2 protein |

Second part, led by results:

| decrease of Kd for PHD2 on addition of Mn2+ and NOG (HIS6-PHD2(181-426)) | binding result [3] | Molecule | binding to pVHL following HIS6-PHD2 treatment (immunoblot, in words) (HIS6-PHD2 (181–426) [1]) | affinity for PHD2 in steady-state pull-down (immunoblot, in words) (HIS6-PHD2 (181–426) [2]) | pull-down of recombinant PHD2 (in words) (HIS6-PHD2 (181–426) [2]; earlier experiments, without Mn2+/NOG stabilization) |
| --- | --- | --- | --- | --- | --- |
|  | binds | Biotin-ELDLETLAPYIPMDGEDFQL-NH2 (SMILES CC[C@H](C)[C@H](NC(=O)[C@H](Cc1ccc(O)cc1)NC(=O)[C@@H]1CCCN1C(=O)[C@H](C)NC(=O)[C@H](CC(C)C)NC(=O)[C@@H](NC(=O)[C@H](CCC(=O)O)NC(=O)[C@H](CC(C)C)NC(=O)[C@H](CC(=O)O)NC(=O)[C@H](CC(C)C)NC(=O)[C@H](CCC(=O)O)NC(=O)CCCC[C@@H]1SC[C@@H]2NC(=O)N[C@@H]21)[C@@H](C)O)C(=O)N1CCC[C@H]1C(=O)N[C@@H](CCSC)C(=O)N[C@@H](CC(=O)O)C(=O)NCC(=O)N[C@@H](CCC(=O)O)C(=O)N[C@@H](CC(=O)O)C(=O)N[C@@H](Cc1ccccc1)C(=O)N[C@@H](CCC(N)=O)C(=O)N[C@@H](CC(C)C)C(N)=O, Used for the pull-down of HIS6-PHD2; source: synthetic peptide (Genscript)) [HIF-2α WT peptide (523-542), unmodified] |  |  |  |
|  | binds | Biotin-ELDLETLAPYIPIDGEDFQL-NH2 (peptide, UniProt Q99814 523-542, looked up, SMILES CC[C@H](C)[C@H](NC(=O)[C@@H]1CCCN1C(=O)[C@@H](NC(=O)[C@H](Cc1ccc(O)cc1)NC(=O)[C@@H]1CCCN1C(=O)[C@H](C)NC(=O)[C@H](CC(C)C)NC(=O)[C@@H](NC(=O)[C@H](CCC(=O)O)NC(=O)[C@H](CC(C)C)NC(=O)[C@H](CC(=O)O)NC(=O)[C@H](CC(C)C)NC(=O)[C@H](CCC(=O)O)NC(=O)CCCC[C@@H]1SC[C@@H]2NC(=O)N[C@@H]21)[C@@H](C)O)[C@@H](C)CC)C(=O)N[C@@H](CC(=O)O)C(=O)NCC(=O)N[C@@H](CCC(=O)O)C(=O)N[C@@H](CC(=O)O)C(=O)N[C@@H](Cc1ccccc1)C(=O)N[C@@H](CCC(N)=O)C(=O)N[C@@H](CC(C)C)C(N)=O, Used for the pull-down of HIS6-PHD2; also called M535I class 2 mutant; source: synthetic peptide (Genscript)) [HIF-2α M535I peptide (523-542), unmodified] |  |  |  |
